According to PubChem BioAssay (NCI):
“And” between values parts separate entries of the source, which are not always exact repeats. Identical values can stand only once.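 Grown in 96-well plates, cells were treated for 48 hours with each compound at five concentrations. Insufficient inhibition: endpoint recorded as highest concentration tested. GI50 = concentration required for 50% inhibition of growth. TGI denotes the concentration required for complete inhibition of growth.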

Legend:
Experiment in all cases: growth of human tumour cells (NCI), 48 h
ACHN renal = system: ACHN renal
M14 melanoma = system: M14 melanoma
MCF7 breast = system: MCF7 breast
OVCAR-3 ovarian = system: OVCAR-3 ovarian
RXF 393 renal = system: RXF 393 renal
SN12C renal = system: SN12C renal
SNB-19 CNS = system: SNB-19 CNS
T-47D breast = system: T-47D breast
U251 CNS = system: U251 CNS
UACC-257 melanoma = system: UACC-257 melanoma

| SMILES | GI50 (ACHN renal) | TGI (ACHN renal) [µM] | GI50 (M14 melanoma) | TGI (M14 melanoma) | GI50 (MCF7 breast) | TGI (MCF7 breast) | GI50 (OVCAR-3 ovarian) | GI50 (RXF 393 renal) | TGI (RXF 393 renal) | GI50 (SN12C renal) | TGI (SN12C renal) [µM] | GI50 (SNB-19 CNS) | TGI (SNB-19 CNS) [µM] | GI50 (T-47D breast) | TGI (T-47D breast) | GI50 (U251 CNS) | TGI (U251 CNS) [µM] | GI50 (UACC-257 melanoma) | TGI (UACC-257 melanoma) | TGI (OVCAR-3 ovarian) [µM] |
| --- | --- | --- | --- | --- | --- | --- | --- | --- | --- | --- | --- | --- | --- | --- | --- | --- | --- | --- | --- | --- |
| CNC(=O)c1cccc(-c2ccc3c(N4CCOC[C@@H]4C)nc(N4CCOC[C@@H]4C)nc3n2)c1 | 0.095 µM and 0.115 µM and 0.119 µM | > 100 | 0.047 µM and 0.177 µM and 0.133 µM | 44.5 µM and > 6.82 µM and 14.9 µM | 0.0295 µM and 0.098 µM and 0.0368 µM | 5.51 µM and > 3.46 µM and 9.7 µM | 0.0597 µM and 0.222 µM and 0.139 µM | 0.0488 µM and 0.06 µM and 0.028 µM | 0.47 µM and 0.37 µM and 0.337 µM | 0.132 µM and 0.121 µM and 0.129 µM | > 100 | 0.448 µM and 0.29 µM | > 93.3 | 0.0168 µM and 0.0287 µM and 0.0186 µM | 0.246 µM and 0.212 µM and 0.103 µM | 0.236 µM and 0.422 µM and 0.176 µM | > 100 | 0.0518 µM and 0.188 µM and 0.0589 µM | 1.21 µM and 1.69 µM and 0.487 µM |  |
| COc1cc2c(/C=C3/C(=O)Nc4ccccc43)c(Cl)n(Cc3ccccc3[N+](=O)[O-])c2cc1C | 4.95 µM | 19.6 | 6.35 µM | 30.2 µM | 5.46 µM | > 100 µM | 3.02 µM | 18.9 µM | 96.2 µM | 9.42 µM | 56.1 | 11.1 µM | 30.8 | 4.11 µM | 21.8 µM | 11.2 µM | 25.1 | 17.7 µM | 85.5 µM | 15 |
| CN(C)c1ccc2c3c(c(=O)oc2c1)CCC3 |  | > 100 |  | > 100 µM |  | > 100 µM |  |  | > 100 µM |  | > 100 |  | > 100 |  | > 100 µM |  | > 100 |  | > 100 µM | > 100 |
| S=C(Nc1ccc(Cl)cc1)Nc1ccc(-c2nc3ccccc3[nH]2)cc1 | 7.08 µM | 31.2 | 7.54 µM | > 42 µM |  | > 41.5 µM | 1.33 µM | 5.86 µM | > 20.5 µM | 6.55 µM | 23.7 | 9.29 µM | 36.5 | 5.34 µM | 32.7 µM | 5.06 µM | 18.1 | 14.7 µM | > 52 µM |  |
| Cn1c(=O)c2[nH]c(CS(=O)(=O)Cc3nc4c([nH]3)c(=O)n(C)c(=O)n4C)nc2n(C)c1=O |  | > 100 |  | > 100 µM |  | > 100 µM |  |  | > 100 µM |  | > 100 |  | > 100 |  | > 100 µM |  | > 100 |  | > 100 µM | > 100 |
| CC(=O)OC(C)(C)/C=C/C(=O)[C@](C)(O)[C@H]1[C@H](O)C[C@@]2(C)[C@@H]3CC=C4[C@@H](C[C@H](O)C(=O)C4(C)C)[C@]3(C)C(=O)C[C@]12C |  | < 0.03 |  | < 0.01 µM |  | 7.66 µM |  |  | < 0.0128 µM |  | 2.99 |  | 0.153 |  | 0.543 µM |  | < 0.01 |  | 2.42 µM | 0.17 |
| C=C1C(=O)OC2CC3(CO3)C3C(O)C(O)CC3(C)CC12 (stereo unspecified) |  | 35.5 |  | 36.7 µM |  | 62.1 µM |  |  | 31.9 µM |  | 68.1 |  | > 100 |  | > 100 µM |  | > 100 |  | > 100 µM | 55.6 |
| CCN(CC)CCOc1ccc(/C=C2\CC3C4CC=C5C[C@@H](N6CCCC6)CC[C@]5(C)C4CC[C@]3(C)[C@H]2O)cc1OC (stereo partly specified) | 5.94 µM | 26.2 | 1.92 µM | 4.23 µM | 4.45 µM | > 59 µM | 5.06 µM | 3.79 µM | 17.8 µM | 20.6 µM | > 63.5 | 6.2 µM | > 63.5 | 7.75 µM | 22.6 µM | 3.08 µM | 20.5 | 6.82 µM | 14.9 µM | 13.6 |
| O=C1C(=O)c2ccccc2C(O)=C1C(CCc1ccccc1)C1=C(O)c2ccccc2C(=O)C1=O |  | > 100 |  | > 100 µM |  | > 100 µM |  |  | > 100 µM |  | > 100 |  | > 100 |  | > 100 µM |  | > 100 |  | 66.7 µM | > 100 |
| COc1ccc(-c2nc(-c3cn(C)c4ncccc34)cs2)cc1 | 91.7 µM | > 100 | 28.2 µM | > 100 µM | 12.5 µM | > 100 µM | 41.6 µM | 55.2 µM | > 100 µM | > 100 µM | > 100 | > 100 µM | > 100 | 12.5 µM | > 100 µM | 78.5 µM | > 100 | > 100 µM | > 100 µM | > 100 |
| O=C(NC(=S)Nc1ccc(Cl)cc1)c1ccccc1 | > 100 µM | > 100 | > 100 µM | > 100 µM | 2.85 µM |  | > 70.6 µM | > 56.2 µM | > 100 µM | > 100 µM | > 100 | > 79.2 µM | > 100 | > 90.3 µM | > 100 µM | > 77.2 µM | > 100 | > 100 µM | > 100 µM | > 100 |
| CCOC(CN=c1nc(N(C)C)ss1)OCC |  | 58.7 |  | 35.5 µM |  | > 65.3 µM |  |  | 37.3 µM |  | 36.8 |  | > 77.4 |  | > 63.7 µM |  | 29.9 |  | 40.7 µM | > 46.4 |
| C=C(CN1CCc2ccccc2C1)c1ccc(C(=O)Nc2ccc(N)cc2)cc1 | 30 µM | > 100 | 11.8 µM | 65.6 µM | 14.8 µM | > 100 µM | 12.7 µM | 16.9 µM | 91.4 µM | 30.1 µM | > 100 | 28.3 µM | > 100 | 11.1 µM | 41.7 µM | 28.2 µM | > 100 | 20.2 µM | 59.7 µM | 48 |
| CC1(C)N=C(N)N=C(N)N1c1cc(Cl)ccc1Cl | > 100 µM | > 100 | > 100 µM | > 100 µM | > 100 µM | > 100 µM | 53.1 µM | > 100 µM | > 100 µM | > 100 µM | > 100 | > 100 µM | > 100 | > 100 µM | > 100 µM | > 100 µM | > 100 | > 100 µM | > 100 µM | > 100 |
| C[C@]12CC[C@@H]3c4ccc(O)cc4CC[C@H]3[C@@H]1CC[C@@H]2NS(=O)(=O)Cc1ccc(Cl)cc1 | 2.94 µM | 11.5 | 2.49 µM | 6.25 µM | 2.92 µM | 9.62 µM | 1.91 µM | 2.04 µM | 6.06 µM | 1.7 µM | 3.36 | 3.66 µM | 47.1 | 2.85 µM | 8.11 µM | 3.33 µM | 11.8 | 2.59 µM | 8.08 µM | 3.83 |
